Data set [1] can be described thus: Pharmacokinetic (PK) assay in mice. In kind it is in vivo. The note with it: Balb/c male mice, single intragastric administration, 5 mg/kg, plasma; for AUC(0-t) / AUC(0-inf) / half-life / MRT / Cmax: mouse, po; for AUC(0-t): read-out: Area under curve AUC0-t; for AUC(0-inf): read-out: Area under curve AUC0-∞; for half-life: read-out: Half-life t1/2 (converted); for MRT: read-out: Mean residence time MRT; for Cmax: read-out: Plasma concentration Cmax. As to the method: 2. Pharmacokinetic (PK) Assay in Mice
The pharmacokinetic test of the preferred examples of the present invention in mice was carried out in Balb/c male mice (Shanghai Jiesijie Laboratory Animal Co., LTD).
Administration mode: single intragastric administration.
Administration dosage: 5 mg/10 ml/kg.
Formulation: 0.5% CMC-Na, ultrasonic dissolution.
Sampling points: 0.5, 1, 2, 4, 6, 8 and 24 hours after administration.
1) 0.1 mL of blood was taken from the orbit, placed in a K2EDTA tube, and centrifuged for 5˜20 min at room temperature at 1000˜3000×g to separate the plasma, which was then stored at −80° C.
2) 160 μL of acetonitrile was added to 40 μL of plasma sample for precipitation, and then the mixture was centrifuged for 5˜20 minutes at 500˜2000×g.
3) 100 μL, of processed supernatant was taken and analyzed by LC/MS/MS assay to determine the concentration of the test compound.
LC-MS/MS Assay: • Liquid chromatography condition: Shimadzu LC-20AD pump • Mass spectrometry condition: AB Sciex API 4000 mass spectrometer • Chromatographic column: phenomenex Gemiu 5 μm C18 50×4.6 mm • Mobile phase: solution A was 0.1% aqueous formic acid solution, and solution B was acetonitrile • Flow rate: 0.8 mL/min • Elution time: 0-3.5 minutes gradient elution
The main parameters were calculated using WinNonlin 6.1.

Another data set concerns the target ASK1 kinase (Homo sapiens (Human), UniProt Q99683). Nature of the data set: ASK1 enzymatic test (TR-FRET). In kind it is biochemical. The conditions noted are these: ASK1 kinase activity. On the procedure:
In this test, the fluorescence-resonance energy transfer (TR-FRET) method was used to determine the inhibition effect of the test compounds on ASK1 kinase activity, and the half maximal inhibitory concentration IC50 of the compounds on ASK1 kinase activity was obtained.
1) 1˜5 μL of ASK1 enzyme solution was added to a 384-well plate, and the final concentration of the enzyme was 0.220 nM.
2) 1˜5 μL of gradient-diluted compound solution was added.
3) 1˜5 μL of a substrate mixture containing substrate polypeptides (final concentration: 100˜5000 nM) and ATP (final concentration: 100˜1000 uM) were added.
4) The mixture was incubated at room temperature for 0.5 to 5 hours.
5) 10 μL of EDTA and test solution containing labeled antibody were added, and the plate was incubated at room temperature for 2 to 24 hours.
6) The fluorescence signal value of each well was determined by a microplate reader at about 615 nm and 665 nm.
7) The inhibition rate was calculated by the fluorescence signal value.
8) The IC50 of the compound was obtained by curve fitting according to the inhibition rate at different concentrations.

ASK1 kinase, sequence (Q99683 whole entry): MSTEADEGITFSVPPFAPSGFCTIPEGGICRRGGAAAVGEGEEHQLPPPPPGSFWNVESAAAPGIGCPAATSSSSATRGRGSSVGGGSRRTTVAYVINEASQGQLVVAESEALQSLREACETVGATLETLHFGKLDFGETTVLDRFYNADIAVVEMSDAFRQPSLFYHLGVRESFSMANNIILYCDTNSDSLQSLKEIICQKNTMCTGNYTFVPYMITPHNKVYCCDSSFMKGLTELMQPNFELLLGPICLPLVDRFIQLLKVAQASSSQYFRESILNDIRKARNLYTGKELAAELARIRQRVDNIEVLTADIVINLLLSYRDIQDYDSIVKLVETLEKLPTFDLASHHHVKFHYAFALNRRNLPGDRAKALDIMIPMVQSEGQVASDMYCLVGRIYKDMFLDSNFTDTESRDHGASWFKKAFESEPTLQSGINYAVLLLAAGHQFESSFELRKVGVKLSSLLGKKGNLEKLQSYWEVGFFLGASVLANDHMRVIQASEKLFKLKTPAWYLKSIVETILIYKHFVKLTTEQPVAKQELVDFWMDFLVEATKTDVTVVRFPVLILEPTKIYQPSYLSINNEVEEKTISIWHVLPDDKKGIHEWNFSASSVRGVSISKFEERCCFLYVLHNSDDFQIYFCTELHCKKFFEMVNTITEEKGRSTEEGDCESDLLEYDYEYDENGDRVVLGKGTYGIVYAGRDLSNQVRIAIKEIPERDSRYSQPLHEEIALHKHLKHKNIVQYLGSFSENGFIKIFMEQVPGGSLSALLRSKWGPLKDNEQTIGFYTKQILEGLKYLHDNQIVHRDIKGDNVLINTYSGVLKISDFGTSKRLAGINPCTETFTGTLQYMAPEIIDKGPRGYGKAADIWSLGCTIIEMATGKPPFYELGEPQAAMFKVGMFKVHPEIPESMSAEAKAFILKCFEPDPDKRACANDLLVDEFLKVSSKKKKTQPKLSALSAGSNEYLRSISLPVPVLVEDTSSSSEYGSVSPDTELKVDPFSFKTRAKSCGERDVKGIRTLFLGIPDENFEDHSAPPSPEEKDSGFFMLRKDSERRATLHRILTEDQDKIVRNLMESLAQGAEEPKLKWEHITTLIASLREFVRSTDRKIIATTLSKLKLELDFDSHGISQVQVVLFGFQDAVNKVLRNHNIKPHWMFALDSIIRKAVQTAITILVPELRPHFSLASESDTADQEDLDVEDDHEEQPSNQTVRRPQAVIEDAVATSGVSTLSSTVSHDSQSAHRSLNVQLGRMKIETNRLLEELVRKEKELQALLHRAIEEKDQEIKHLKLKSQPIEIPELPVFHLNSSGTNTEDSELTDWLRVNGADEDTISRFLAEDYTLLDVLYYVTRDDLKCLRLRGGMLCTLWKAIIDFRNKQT

Turning to `Cc1cc(F)c(C(=O)Nc2cccc(-c3nnc4n3C[C@H](C)C4)n2)cc1-n1cnc(C2CC2)c1` [Example 34, (R)-5-(4-Cyclopropyl-1H-imidazol-1-yl)-2-fluoro-4-methyl-N-(6-(6-methyl-6,7-dihydro-5H-pyrrolo[2,1-c][1,2,4]triazol-3-yl)pyridin-2-yl)benzamide], in data set [1], the Peak time tmax stood at 1 h, the AUC(0-t) stood at 81100 ng·h/mL, the AUC(0-inf) stood at 81200 ng·h/mL and the half-life was 2.5 h. In data set [1], the MRT was 4.4 h and the Cmax amounted to 13500 ng/mL. For the same compound, at ASK1 kinase, the IC50 turned out to be 5.2 nM.

As for `Cc1cc(F)c(C(=O)Nc2cccc(-c3nnc4n3CCCCC4)n2)cc1-n1cnc(C2CC2)c1` [Example 2, 5-(4-Cyclopropyl-1H-imidazol-1-yl)-2-fluoro-4-methy 1-N-(6-(6,7,8,9-tetrahydro-5H-[1,2,4]triazolo[4,3-a]azepin-3-yl)pyridin-2-yl)benzamide], the IC50 on ASK1 kinase is 9.3 nM.

Regarding `Cc1cc(F)c(C(=O)Nc2cccc(-c3nnc4n3C(C(F)(F)F)CC4)n2)cc1-n1cnc(C2CC2)c1` (stereo not drawn) [Example 41, 5-(4-Cyclopropyl-1H-imidazol-1-yl)-2-fluoro-4-methyl-N-(6-(5-(trifluoromethyl)-6,7-di hydro-5H-pyrrolo[2,1-c][1,2,4]triazol-3-yl)pyridin-2-yl)benzamide], in data set [1], the Peak time tmax turned out to be 1 h, the AUC(0-t) came out at 83900 ng·h/mL, the AUC(0-inf) stood at 83900 ng·h/mL and the half-life is 2 h. Moreover, in data set [1], the MRT is 4 h and the Cmax is 17100 ng/mL. The compound further returned a half-maximal inhibitory concentration (IC50) at ASK1 kinase of 7.7 nM.

On to `Cc1cc2c(cc1-n1cnc(C3CC3)c1)C(=O)N(c1cccc(-c3nnc4n3CCC4)n1)C2` [Example 63, 6-(4-Cyclopropyl-1H-imidazol-1-yl)-2-(6-(6,7-dihydro-5H-pyrrolo[2,1-c][1,2,4]triazol-3-yl)pyridin-2-yl)-5-methylisoindolin-1-one], for which the IC50 on ASK1 kinase came out at 8.4 nM.

`Cc1cc(F)c(C(=O)Nc2cccc(-c3nnc4n3CCOC4)n2)cc1-n1cnc(C2CC2)c1` [Example 4, 5-(4-Cyclopropyl-1H-imidazol-1-yl)-N-(6-(5,6-dihydro-8H-[1,2,4]triazolo[3,4-c][1,4]oxazin-3-yl)pyridin-2-yl)-2-fluoro-4-methylbenzamide] showed an IC50 against ASK1 kinase of 47.8 nM.

For `CO[C@H](C)[C@H]1CCc2nnc(-c3cccc(NC(=O)c4cc(-n5cnc(C6CC6)c5)c(C)cc4F)n3)n21` [Example 36, 5-(4-Cyclopropyl-1H-imidazol-1-yl)-2-fluoro-N-(6-((R)-5-((R)-1-methoxyethyl)-6,7-di hydro-5H-pyrrolo[2,1-c][1,2,4]triazol-3-yl)pyridin-2-yl)-4-methylbenzamide], the 50% inhibitory concentration (IC50) against ASK1 kinase was found to be 9.1 nM.

For the compound `C#CC1CCc2nnc(-c3cccc(NC(=O)c4cc(-n5cnc(C6CC6)c5)c(C)cc4F)n3)n21` (stereo not drawn) [Example 44, 5-(4-Cyclopropyl-1H-imidazol-1-yl)-N-(6-(5-ethynyl-6,7-dihydro-5H-pyrrolo[2,1-c][1,2,4]triazol-3-yl)pyridin-2-yl)-2-fluoro-4-methylbenzamide], on ASK1 kinase, the IC50 amounted to 3.6 nM.

The compound `Cc1cc(F)c(C(=O)Nc2cccc(-c3nnc4n3[C@H](CC#N)CC4)n2)cc1-n1cnc(C2CC2)c1` [Example 48, (S)—N-(6-(5-(Cyanomethyl)-6,7-dihydro-5H-pyrrolo[2,1-c][1,2,4]triazol-3-yl)pyridin-2-yl)-5-(4-cyclopropyl-1H-imidazol-1-yl)-2-fluoro-4-methylbenzamide] had an IC50 on ASK1 kinase of 6.1 nM.

Take `O=C(Nc1cccc(-c2nnc3n2CCC3)c1)c1cc(-n2cnc(C3CC3)c2)ccn1` [Example 7, 4-(4-Cyclopropyl-1H-imidazol-1-yl)-N-(3-(6,7-dihydro-5H-pyrrolo[2,1-c][1,2,4]triazol-3-yl)phenyl)picolinamide]: the IC50 against ASK1 kinase turned out to be 19.6 nM.

Turning to `Cc1cc(F)c(C(=O)Nc2cccc(-c3nnc4n3CC(C3CC3)C4)n2)cc1-n1cnc(C2CC2)c1` (stereo not drawn) [Example 30, 5-(4-Cyclopropyl-1H-imidazol-1-yl)-N-(6-(6-cyclopropyl-6,7-dihydro-5H-pyrrolo[2,1-c][1,2,4]triazol-3-yl)pyridin-2-yl)-2-fluoro-4-methylbenzamide], at ASK1 kinase, the IC50 is 11.4 nM.

With `Cc1cc(F)c(C(=O)Nc2cccc(-c3nnc4n3[C@@H](CF)CC4)n2)cc1-n1cnc(C2CC2)c1` [Example 52, (R)-5-(4-Cyclopropyl-1H-imidazol-1-yl)-2-fluoro-N-(6-(5-(fluoromethyl)-6,7-dihydro-5H-pyrrolo[2,1-c][1,2,4]triazol-3-yl)pyridin-2-yl)-4-methylbenzamide], in data set [1], the Peak time tmax was 0.5 h, the AUC(0-t) amounted to 70500 ng·h/mL, the AUC(0-inf) amounted to 70600 ng·h/mL and the half-life was 3 h. Besides, in data set [1], the MRT stood at 4.7 h and the Cmax was 9970 ng/mL.

As to `Cc1cc(Cl)c(C(=O)Nc2cccc(-c3nnc4n3[C@H](C)CC4)n2)cc1-n1cnc(C2CC2)c1` [Example 53, (R)-2-Chloro-5-(4-cyclopropyl-1H-imidazol-1-yl)-4-methyl-N-(6-(5-methyl-6,7-dihydro-5H-pyrrolo[2,1-c][1,2,4]triazol-3-yl)pyridin-2-yl)benzamide], on ASK1 kinase, the IC50 is 8.2 nM.

In turn, `Cc1cc(F)c(C(=O)Nc2cccc(-c3nnc4n3C3(CC4)CC3)n2)cc1-n1cnc(C(C)C)c1` [Example 62, N-(6-(6′,7′-Dihydrospiro[cyclopropane-1,5′-pyrrolo[2,1-c][1,2,4]triazol]-3′-yl)pyridin-2-yl)-2-fluoro-5-(4-isopropyl-1H-imidazol-1-yl)-4-methylbenzamide] showed an IC50 on ASK1 kinase of 3 nM.

`Cc1cc(F)c(C(=O)Nc2cccc(-c3nnc4n3CC3(CC3)C4)n2)cc1-n1cnc(C2CC2)c1` [Example 31, N-(6-(5′H,7′H-Spiro[cyclopropane-1,6′-pyrrolo[2,1-c][1,2,4]triazol]-3′-yl)pyridin-2-yl)-5-(4-cyclopropyl-1H-imidazol-1-yl)-2-fluoro-4-methylbenzamide] came in with an IC50 on ASK1 kinase of 10.9 nM.

Turning to `Cc1cc(F)c(C(=O)Nc2cccc(-c3nnc4n3C[C@@H](C)C4)n2)cc1-n1cnc(C2CC2)c1` [Example 35, (S)-5-(4-Cyclopropyl-1H-imidazol-1-yl)-2-fluoro-4-methyl-N-(6-(6-methyl-6,7-di hydro-5H-pyrrolo[2,1-c][1,2,4]triazol-3-yl)pyridin-2-yl)benzamide], in data set [1], the Peak time tmax came to 1 h, the AUC(0-t) stood at 107000 ng·h/mL, the AUC(0-inf) was 108000 ng·h/mL and the half-life was 3.7 h. Besides, in data set [1], the MRT is 5 h and the Cmax was 13500 ng/mL.

At ASK1 kinase, `Cc1cc(F)c(C(=O)Nc2cccc(-c3nnc4n3CCCC4)n2)cc1-n1cnc(C2CC2)c1` [Example 3, 5-(4-Cyclopropyl-1H-imidazol-1-yl)-2-fluoro-4-methyl-N-(6-(5,6,7,8-tetrahydro-[1,2,4]triazolo[4,3-a]pyridin-3-yl)pyridin-2-yl)benzamide] gave an IC50 of 13.4 nM.

`Cc1cc(F)c(C(=O)Nc2cccc(-c3nnc4n3[C@H](CO)CC4)n2)cc1-n1cnc(C2CC2)c1` [Example 50, (S)-5-(4-Cyclopropyl-1H-imidazol-1-yl)-2-fluoro-N-(6-(5-(hydroxymethyl)-6,7-dihydro-5H-pyrrolo[2,1-c][1,2,4]triazol-3-yl)pyridin-2-yl)-4-methylbenzamide] registered an IC50 against ASK1 kinase of 9.6 nM.

The values are drawn from patent US11136324B2, “Substituted imidazoles as apoptosis signal regulating kinase 1 inhibitors” (Jiangsu Hansoh Pharmaceutical Group Co., Ltd., priority 2017, dated 2021).
